Series [1] can be described thus: Chemical stability assessment by RP-UPLC. The note with it: 333 μM, 8 mM phosphate buffer pH 7.3, 37° C. vs 5° C. It is filed as physicochemical. The procedure, abridged: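 Purity loss = (purity after 14 days at 5° C. minus that at 37° C.) relative to the 5° C. value, purity being main-peak area % by RP-UPLC with UV at 215 nm. Samples were 333 μM in 8 mM phosphate, pH 7.3; gradient adjusted for outlying retention times.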

The target of series [2] is T1, human GLP-1 receptor (Homo sapiens, UniProt P43220).
T1 construct: expressed in transfected cells; host or cells: BHK cells (parent BHKTS13), clone FCW467-12A/KZ10-1, with CRE luciferase
The series can be described thus: GLP-1 receptor binding, 125I-GLP-1 displacement SPA on isolated membranes. The note with it: displacement of 125I-GLP-1 from membranes; read-out: IC50 GLP-1R. The gist of the method: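 SPA displacement of 125I-GLP-1(7-36)NH2 from membranes of BHK cells expressing human GLP-1 receptor, with WGA beads, in 50 mM HEPES, 5 mM EGTA, 5 mM MgCl2, 0.005% Tween 20, pH 7.4. Incubated 2 h at 30°C; IC50 by non-linear regression, run at ≤0.001% or 2.0% final serum albumin.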
A general note: In a radioligand displacement assay an active substance lowers the binding of a labelled ligand.

Numbered stars: 1 amine (or outer) side, 2 acyl side, 3 side chain; on linkers, the order of the positions; unused ones are H or OH. Bridge positions count the residues as written; N and C are the ends. Square brackets hold non-standard residues; d marks the D form. Side chains are listed from the residue outwards. Peptide text beside a SMILES is read from it. I, II: the chains in the order shown. * marks the point of attachment. C18 diacid = O=C(O)CCCCCCCCCCCCCCCCC(=O)*; γGlu = O=C(O)[C@H](CCC(=O)[*:2])N[*:1]; Ac4c = NC1(C(=O)O)CCC1; AEEA = NCCOCCOCC(=O)O; Aib = CC(C)(N)C(=O)O

T1 sequence (P43220 24-463): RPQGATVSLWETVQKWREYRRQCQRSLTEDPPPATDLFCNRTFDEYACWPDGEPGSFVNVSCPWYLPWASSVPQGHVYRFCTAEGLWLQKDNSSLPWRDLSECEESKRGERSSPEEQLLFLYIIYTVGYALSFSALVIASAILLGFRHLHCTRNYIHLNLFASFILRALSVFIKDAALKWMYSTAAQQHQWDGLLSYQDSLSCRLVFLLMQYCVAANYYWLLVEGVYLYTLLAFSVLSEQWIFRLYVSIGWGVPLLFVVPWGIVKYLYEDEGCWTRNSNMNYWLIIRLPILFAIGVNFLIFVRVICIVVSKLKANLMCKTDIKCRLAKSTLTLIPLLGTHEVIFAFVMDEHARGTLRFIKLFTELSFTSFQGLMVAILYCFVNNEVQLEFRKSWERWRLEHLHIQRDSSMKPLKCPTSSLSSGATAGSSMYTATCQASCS

As to `CC(C)C[C@H](NC(=O)[C@H](Cc1ccc(O)cc1)NC(=O)[C@H](CCCCN)NC(=O)[C@H](CO)NC(=O)[C@H](CC(C)C)NC(=O)[C@H](CC(=O)O)NC(=O)[C@H](CO)NC(=O)[C@@H](NC(=O)[C@H](Cc1ccccc1)NC(=O)[C@@H](NC(=O)CNC(=O)[C@H](CCC(N)=O)NC(=O)C1(NC(=O)[C@@H](N)Cc2c[nH]cn2)CCC1)[C@@H](C)O)[C@@H](C)O)C(=O)N[C@@H](CCC(=O)O)C(=O)N[C@@H](CCC(=O)O)C(=O)N[C@@H](CCCNC(=N)N)C(=O)N[C@@H](CCCNC(=N)N)C(=O)N[C@@H](C)C(=O)N[C@@H](CCCNC(=N)N)C(=O)N[C@@H](CC(=O)O)C(=O)N[C@@H](Cc1ccccc1)C(=O)N[C@H](C(=O)N[C@@H](CCC(N)=O)C(=O)N[C@@H](Cc1c[nH]c2ccccc12)C(=O)N[C@@H](CC(C)C)C(=O)N[C@@H](CC(C)C)C(=O)N[C@@H](CCCCNC(=O)CNC(=O)[C@H](CO)NC(=O)[C@H](CCC(=O)O)NC(=O)CNC(=O)[C@H](CO)NC(=O)CC[C@H](NC(=O)CC[C@H](NC(=O)CCCCCCCCCCCCCCCCC(=O)O)C(=O)O)C(=O)O)C(=O)N[C@H](C(N)=O)[C@@H](C)O)C(C)C` [Example 16, N^ε28-[2-[[(2S)-2-[[(2S)-4-carboxy-2-[[2-[[(2S)-2-[[(4S)-4-carboxy-4-[[(4S)-4-carboxy-4-(17-carboxyheptadecanoylamino)butanoyl]amino]butanoyl]amino]-3-hydroxypropanoyl]amino]acetyl]amino]butanoyl]amino]-3-hydroxypropanoyl]amino]acetyl]-[Acb2,Leu10,Glu15,Glu16,Arg20,Leu27,Lys28]-Glucagon amide] (I: H-H[Ac4c]QGTFTSDLSKYLEERRARDFVQWLLKT-NH2 / II: {C18 diacid-γGlu-γGlu}-SGESG; amide I:28-II:C; N-terminus assumed), the “Purity loss; 14 days at 37° C.” value in series [1] came out at 3%. Moreover, in series [2], the IC50 (usually the concentration needed to halve the response being measured) is 200 pM.

`CC(C)C[C@H](NC(=O)[C@H](Cc1ccc(O)cc1)NC(=O)[C@H](CCCCN)NC(=O)[C@H](CO)NC(=O)[C@H](CC(C)C)NC(=O)[C@H](CC(=O)O)NC(=O)[C@H](CO)NC(=O)[C@@H](NC(=O)[C@H](Cc1ccccc1)NC(=O)[C@@H](NC(=O)CNC(=O)[C@H](CCC(N)=O)NC(=O)C(C)(C)NC(=O)[C@@H](N)Cc1c[nH]cn1)[C@@H](C)O)[C@@H](C)O)C(=O)N[C@@H](CCC(=O)O)C(=O)N[C@@H](CO)C(=O)N[C@@H](CCCCN)C(=O)N[C@@H](CCCNC(=N)N)C(=O)N[C@@H](C)C(=O)N[C@@H](CCCNC(=N)N)C(=O)N[C@@H](CO)C(=O)N[C@@H](Cc1ccccc1)C(=O)N[C@H](C(=O)N[C@@H](CCC(N)=O)C(=O)N[C@@H](Cc1c[nH]c2ccccc12)C(=O)N[C@@H](CC(C)C)C(=O)N[C@@H](CC(C)C)C(=O)N[C@@H](CCCCNC(=O)CC[C@H](NC(=O)CC[C@H](NC(=O)[C@H](CO)NC(=O)[C@H](CCC(=O)O)NC(=O)[C@H](CO)NC(=O)CC[C@H](NC(=O)CC[C@H](NC(=O)CCCCCCCCCCCCCCCCC(=O)O)C(=O)O)C(=O)O)C(=O)O)C(=O)O)C(=O)N[C@H](C(N)=O)[C@@H](C)O)C(C)C` [Example 69, N^ε28-[(4S)-4-carboxy-4-[[(4S)-4-carboxy-4-[[(2S)-2-[[(2S)-4-carboxy-2-[[(2S)-2-[[(4S)-4-carboxy-4-[[(4S)-4-carboxy-4-(17-carboxyheptadecanoylamino)butanoyl]amino]butanoyl]amino]-3-hydroxypropanoyl]amino]butanoyl]amino]-3-hydroxypropanoyl]amino]butanoyl]amino]butanoyl]-[Aib2,Leu10,Glu15,Lys17,Arg20,Ser21,Leu27,Lys28]-Glucagon amide] (H-H[Aib]QGTFTSDLSKYLESKRARSFVQWLLK([γGlu-γGlu-Ser-Glu-Ser-γGlu-γGlu-C18 diacid])T-NH2; N-terminus assumed): the “Purity loss; 14 days at 37° C.” value in series [1] turned out to be 2%. In series [2], the IC50 was found to be 200 pM.

Regarding `CC(C)C[C@H](NC(=O)[C@H](Cc1ccc(O)cc1)NC(=O)[C@H](CCCCN)NC(=O)[C@H](CO)NC(=O)[C@H](CC(C)C)NC(=O)[C@H](CC(=O)O)NC(=O)[C@H](CO)NC(=O)[C@@H](NC(=O)[C@H](Cc1ccccc1)NC(=O)[C@@H](NC(=O)CNC(=O)[C@H](CCC(N)=O)NC(=O)C1(NC(=O)[C@@H](N)Cc2c[nH]cn2)CCC1)[C@@H](C)O)[C@@H](C)O)C(=O)N[C@@H](CCC(=O)O)C(=O)N[C@@H](CO)C(=O)N[C@@H](CCCNC(=N)N)C(=O)N[C@@H](CCCNC(=N)N)C(=O)N[C@@H](C)C(=O)N[C@@H](CCCNC(=N)N)C(=O)N[C@@H](CCC(=O)O)C(=O)N[C@@H](Cc1ccccc1)C(=O)N[C@H](C(=O)N[C@@H](CCC(N)=O)C(=O)N[C@@H](Cc1c[nH]c2ccccc12)C(=O)N[C@@H](CC(C)C)C(=O)N[C@@H](CC(C)C)C(=O)N[C@@H](CCCCNC(=O)CC[C@H](NC(=O)CC[C@H](NC(=O)COCCOCCNC(=O)COCCOCCNC(=O)CC[C@H](NC(=O)CCCCCCCCCCCCCCCCC(=O)O)C(=O)O)C(=O)O)C(=O)O)C(=O)N[C@H](C(N)=O)[C@@H](C)O)C(C)C` [Example 44, N^ε28-[(4S)-4-carboxy-4-[[(4S)-4-carboxy-4-[[2-[2-[2-[[2-[2-[2-[[(4S)-4-carboxy-4-(17-carboxyheptadecanoylamino)butanoyl]amino]ethoxy]ethoxy]acetyl]amino]ethoxy]ethoxy]acetyl]amino]butanoyl]amino]butanoyl]-[Acb2,Leu10,Glu15,Arg20,Glu21,Leu27,Lys28]-Glucagon amide] (H-H[Ac4c]QGTFTSDLSKYLESRRAREFVQWLLK([γGlu-γGlu-AEEA-AEEA-γGlu-C18 diacid])T-NH2; N-terminus assumed), in series [1], the “Purity loss; 14 days at 37° C.” value is 2%. Besides, the IC50 in series [2] worked out at 300 pM.

Turning to `CC(C)C[C@H](NC(=O)[C@H](Cc1ccc(O)cc1)NC(=O)[C@H](CCCCN)NC(=O)[C@H](CO)NC(=O)[C@H](CC(C)C)NC(=O)[C@H](CC(=O)O)NC(=O)[C@H](CO)NC(=O)[C@@H](NC(=O)[C@H](Cc1ccccc1)NC(=O)[C@@H](NC(=O)CNC(=O)[C@H](CCC(N)=O)NC(=O)C(C)(C)NC(=O)[C@@H](N)Cc1c[nH]cn1)[C@@H](C)O)[C@@H](C)O)C(=O)N[C@@H](CC(=O)O)C(=O)N[C@@H](C)C(=O)N[C@@H](CCCNC(=N)N)C(=O)N[C@@H](CCCNC(=N)N)C(=O)N[C@@H](C)C(=O)N[C@@H](CCCNC(=N)N)C(=O)N[C@@H](CCC(=O)O)C(=O)N[C@@H](Cc1ccccc1)C(=O)N[C@H](C(=O)N[C@@H](CCC(N)=O)C(=O)N[C@@H](Cc1c[nH]c2ccccc12)C(=O)N[C@@H](CC(C)C)C(=O)N[C@@H](CC(C)C)C(=O)N[C@@H](CCCCNC(=O)CC[C@H](NC(=O)CC[C@H](NC(=O)COCCOCCNC(=O)COCCOCCNC(=O)CC[C@H](NC(=O)CCCCCCCCCCCCCCCCC(=O)O)C(=O)O)C(=O)O)C(=O)O)C(=O)N[C@H](C(N)=O)[C@@H](C)O)C(C)C` [Example 43, N^ε28-[(4S)-4-carboxy-4-[[(4S)-4-carboxy-4-[[2-[2-[2-[[2-[2-[2-[[(4S)-4-carboxy-4-(17-carboxyheptadecanoylamino)butanoyl]amino]ethoxy]ethoxy]acetyl]amino]ethoxy]ethoxy]acetyl]amino]butanoyl]amino]butanoyl]-[Aib2,Leu10,Ala16,Arg20,Glu21,Leu27,Lys28]-Glucagon amide] (H-H[Aib]QGTFTSDLSKYLDARRAREFVQWLLK([γGlu-γGlu-AEEA-AEEA-γGlu-C18 diacid])T-NH2; N-terminus assumed), the “Purity loss; 14 days at 37° C.” value in series [1] is 2%. For the same compound, the IC50 in series [2] came to 300 pM.

As to `CC(C)C[C@H](NC(=O)[C@H](Cc1ccc(O)cc1)NC(=O)[C@H](CCCCN)NC(=O)[C@H](CO)NC(=O)[C@H](CC(C)C)NC(=O)[C@H](CC(=O)O)NC(=O)[C@H](CO)NC(=O)[C@@H](NC(=O)[C@H](Cc1ccccc1)NC(=O)[C@@H](NC(=O)CNC(=O)[C@H](CCC(N)=O)NC(=O)C(C)(C)NC(=O)[C@@H](N)Cc1c[nH]cn1)[C@@H](C)O)[C@@H](C)O)C(=O)N[C@@H](CC(=O)O)C(=O)N[C@@H](CO)C(=O)N[C@@H](CCCNC(=N)N)C(=O)N[C@@H](CCCNC(=N)N)C(=O)N[C@@H](C)C(=O)N[C@@H](CCCNC(=N)N)C(=O)N[C@@H](CCC(=O)O)C(=O)N[C@@H](Cc1ccccc1)C(=O)N[C@H](C(=O)N[C@@H](CCC(N)=O)C(=O)N[C@@H](Cc1c[nH]c2ccccc12)C(=O)N[C@@H](CC(C)C)C(=O)N[C@@H](CC(C)C)C(=O)N[C@@H](CCCCNC(=O)CC[C@H](NC(=O)CC[C@H](NC(=O)COCCOCCNC(=O)COCCOCCNC(=O)CC[C@H](NC(=O)CCCCCCCCCCCCCCCCC(=O)O)C(=O)O)C(=O)O)C(=O)O)C(=O)N[C@H](C(N)=O)[C@@H](C)O)C(C)C` [Example 56, N^ε28-[(4S)-4-carboxy-4-[[(4S)-4-carboxy-4-[[2-[2-[2-[[2-[2-[2-[[(4S)-4-carboxy-4-(17-carboxyheptadecanoylamino)butanoyl]amino]ethoxy]ethoxy]acetyl]amino]ethoxy]ethoxy]acetyl]amino]butanoyl]amino]butanoyl]-[Aib2,Leu10,Arg20,Glu21,Leu27,Lys28]-Glucagon amide] (H-H[Aib]QGTFTSDLSKYLDSRRAREFVQWLLK([γGlu-γGlu-AEEA-AEEA-γGlu-C18 diacid])T-NH2), the “Purity loss; 14 days at 37° C.” value in series [1] was 4%. Further, in series [2], the IC50 came to 300 pM.
